# In patent US7420043B2, “Reagents for detecting efavirenz” (priority 2003, dated 2008):
# Read-outs that look alike come from different tables or passages of the source.
# Experiments:
# [1] = system: monoclonal antibody EFA 97.1; experiment: Cross-reactivity assay (competitive ELISA, ED50 ratio); type: binding, mouse; details: ED50 of efavirenz divided by ED50 of the drug, times 100
# Excerpt: Supernatants were subjected to serial dilutions and retested in the ELISA screen above omitting the competitive inhibition with free drug. The dilution providing for approximately a 50% reduction from the maximum OD was chosen for proceeding to cross-reactivity testing. This comprised repeating the preceding assay with the antibody at the chosen dilution and in the presence of varying concentrations of different drugs. FIG. 8 presents the results of such a determination.
# [2] = cited from earlier work
# HIV = details: cited from earlier work
# [3] = Physician's Desk Reference; cited from earlier work
SMILES,% Cross-reactivity [1] [%],other results
"Cc1cn([C@H]2C=C[C@@H](CO)O2)c(=O)[nH]c1=O [2′,3′-didehydro-3′-deoxythymidine]",0,
Cc1cn([C@H]2C[C@H](N=[N+]=[N-])[C@@H](CO)O2)c(=O)[nH]c1=O [3′-azido-3′-deoxythymidine],0,
CC(C)CN(C[C@@H](O)[C@H](Cc1ccccc1)NC(=O)O[C@H]1CCOC1)S(=O)(=O)c1ccc(N)cc1 [amprenavir],0,
COC(=O)N[C@H](C(=O)N[C@@H](Cc1ccccc1)[C@@H](O)CN(Cc1ccc(-c2ccccn2)cc1)NC(=O)[C@@H](NC(=O)OC)C(C)(C)C)C(C)(C)C [atazanavir],0,
CC(C)Nc1cccnc1N1CCN(C(=O)c2cc3cc(NS(C)(=O)=O)ccc3[nH]2)CC1 [delaviridine],0,
O=C1Nc2ccc(Cl)cc2[C@@](C#CC2CC2)(C(F)(F)F)O1 [efavirenz],100,"CNS toxicity frequency, high versus mid plasma levels ([2]; >4000 μg/L compared with 1000-4000 μg/L): approximately three times more frequent; patients discontinuing therapy because of severity or persistence of CNS side effects ([2]; patients receiving efavirenz): about 4%; patients reporting CNS side effects (dizziness, hallucinations, nightmares, insomnia) ([2]; patients receiving efavirenz): 20-40%; virological failure, % of patients (HIV; patients with low plasma levels of efavirenz, <1000 μg/L, 85 total patients): 50%; virological failure, % of patients (HIV; plasma levels 1000-4000 μg/L or more than 4000 μg/L): 18-22%; peak levels [3]: 12.9 µM"
CC(C)(C)NC(=O)[C@@H]1CN(Cc2cccnc2)CCN1C[C@@H](O)C[C@@H](Cc1ccccc1)C(=O)N[C@H]1c2ccccc2C[C@H]1O [indinavir],0,
Cc1cccc(C)c1OCC(=O)N[C@@H](Cc1ccccc1)[C@@H](O)C[C@H](Cc1ccccc1)NC(=O)[C@H](C(C)C)N1CCCNC1=O [lopinavir],0,
Cc1c(O)cccc1C(=O)N[C@@H](CSc1ccccc1)[C@H](O)CN1C[C@H]2CCCC[C@H]2C[C@H]1C(=O)NC(C)(C)C [nelfinavir],0,
Cc1ccnc2c1NC(=O)c1cccnc1N2C1CC1 [nevirapine],0,
CC(C)c1nc(CN(C)C(=O)N[C@H](C(=O)N[C@@H](Cc2ccccc2)C[C@H](O)[C@H](Cc2ccccc2)NC(=O)OCc2cncs2)C(C)C)cs1 [ritonavir],0,
CC(C)(C)NC(=O)[C@@H]1C[C@@H]2CCCC[C@@H]2CN1C[C@@H](O)[C@H](Cc1ccccc1)NC(=O)[C@H](CC(N)=O)NC(=O)c1ccc2ccccc2n1 [saquinavir],0,
